This assay addresses T1, adult-type mouse AChR (α1-GFP, β, δ, ε), whole-cell (Mus musculus, UniProt P02716+P04756+P20782).
T1 construct: gene Chrna1; alpha1 with GFP encoded between M3 and M4; transient expression in HEK293, GFP-sorted cells; pentamer; no background mutations; with Acetylcholine receptor subunit beta
Nature of the assay: automated whole-cell patch clamp (IonFlux […]), concentration-response. The format is cell-based.

T1 sequence (P20782 21-493): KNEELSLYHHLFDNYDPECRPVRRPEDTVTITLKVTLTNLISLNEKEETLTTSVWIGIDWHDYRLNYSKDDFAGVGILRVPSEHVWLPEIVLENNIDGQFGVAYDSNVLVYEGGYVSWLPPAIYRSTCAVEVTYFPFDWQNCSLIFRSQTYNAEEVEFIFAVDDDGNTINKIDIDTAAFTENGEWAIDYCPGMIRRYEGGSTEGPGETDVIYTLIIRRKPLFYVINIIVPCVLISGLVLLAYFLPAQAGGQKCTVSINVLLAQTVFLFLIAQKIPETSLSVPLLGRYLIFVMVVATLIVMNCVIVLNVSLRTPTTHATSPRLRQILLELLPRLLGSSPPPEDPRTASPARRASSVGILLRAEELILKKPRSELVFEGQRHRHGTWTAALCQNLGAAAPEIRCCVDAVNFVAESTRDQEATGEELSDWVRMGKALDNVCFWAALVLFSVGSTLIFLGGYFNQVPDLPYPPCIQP
T1 sequence (P02716 25-520): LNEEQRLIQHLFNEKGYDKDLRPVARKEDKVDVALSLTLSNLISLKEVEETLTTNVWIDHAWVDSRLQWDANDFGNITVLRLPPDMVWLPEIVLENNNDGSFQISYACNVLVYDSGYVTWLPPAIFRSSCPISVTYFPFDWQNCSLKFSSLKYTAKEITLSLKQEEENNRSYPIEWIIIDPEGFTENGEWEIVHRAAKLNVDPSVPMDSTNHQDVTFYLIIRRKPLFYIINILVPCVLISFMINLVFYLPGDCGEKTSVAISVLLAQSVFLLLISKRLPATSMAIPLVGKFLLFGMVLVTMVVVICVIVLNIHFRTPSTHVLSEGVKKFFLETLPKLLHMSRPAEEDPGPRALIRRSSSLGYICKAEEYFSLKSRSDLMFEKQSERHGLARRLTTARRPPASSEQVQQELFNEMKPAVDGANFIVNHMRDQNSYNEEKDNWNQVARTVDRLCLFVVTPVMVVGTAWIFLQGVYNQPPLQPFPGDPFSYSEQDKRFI
T1 sequence (P09690 24-501, further chain): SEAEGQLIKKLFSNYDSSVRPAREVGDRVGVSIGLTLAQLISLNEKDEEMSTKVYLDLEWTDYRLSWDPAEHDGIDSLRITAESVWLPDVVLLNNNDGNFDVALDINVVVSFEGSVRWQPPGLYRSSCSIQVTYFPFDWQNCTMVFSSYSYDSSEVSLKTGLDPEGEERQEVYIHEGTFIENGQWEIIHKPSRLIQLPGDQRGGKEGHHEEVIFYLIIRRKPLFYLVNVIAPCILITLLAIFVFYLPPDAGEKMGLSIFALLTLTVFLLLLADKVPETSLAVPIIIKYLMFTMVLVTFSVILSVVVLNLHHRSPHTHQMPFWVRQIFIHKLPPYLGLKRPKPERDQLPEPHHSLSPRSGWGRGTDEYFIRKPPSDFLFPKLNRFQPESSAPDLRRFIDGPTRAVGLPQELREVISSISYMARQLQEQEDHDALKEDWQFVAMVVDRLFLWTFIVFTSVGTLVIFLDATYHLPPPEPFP
T1 sequence (P04756 21-457): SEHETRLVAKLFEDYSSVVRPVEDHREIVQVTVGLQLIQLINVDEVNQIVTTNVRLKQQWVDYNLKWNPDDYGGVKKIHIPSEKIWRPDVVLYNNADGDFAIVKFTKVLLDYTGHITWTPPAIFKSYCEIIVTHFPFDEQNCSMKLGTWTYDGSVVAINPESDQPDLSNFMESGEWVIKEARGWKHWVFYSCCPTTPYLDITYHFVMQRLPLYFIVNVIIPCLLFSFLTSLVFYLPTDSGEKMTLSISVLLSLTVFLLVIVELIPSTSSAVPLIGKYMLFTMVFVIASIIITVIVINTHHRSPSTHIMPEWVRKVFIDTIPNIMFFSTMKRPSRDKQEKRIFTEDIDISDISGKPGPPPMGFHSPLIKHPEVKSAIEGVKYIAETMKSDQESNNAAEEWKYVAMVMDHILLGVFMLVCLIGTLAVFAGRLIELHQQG

On to `C[N+](C)(C)C` [TMA], for which the midpoint of the response, the EC50, lay at 843 ± 110 µM.
The compound `C[N+](C)(C)CCOC(N)=O` [CCh] registered an EC50 of 72.2 ± 11 µM.
